Values joined by “and” are separate entries in the source; they are usually repeats but may differ in a detail not shown here. Equal entries are not always repeated.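 Growth conditions: 96-well plates. Treatment: test compound, 48 hours, 5 concentrations. Analysis: linear interpolation between bracketing concentrations; unreached endpoints set to highest concentration. Abbreviation: GI50, concentration required for 50% inhibition of growth. TGI is the concentration that stops growth completely.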
Tests used:
Test in all cases: growth of human tumour cells (NCI), 48 h
SK-MEL-5 melanoma = system: SK-MEL-5 melanoma
HCT-15 colon = system: HCT-15 colon
KM12 colon = system: KM12 colon
SR leukemia = system: SR leukemia
OVCAR-8 ovarian = system: OVCAR-8 ovarian
SNB-78 CNS = system: SNB-78 CNS
A549 NSCLC = system: A549 NSCLC
CAKI-1 renal = system: CAKI-1 renal
HT29 colon = system: HT29 colon
ACHN renal = system: ACHN renal
SK-MEL-2 melanoma = system: SK-MEL-2 melanoma
UO-31 renal = system: UO-31 renal
M14 melanoma = system: M14 melanoma
SK-OV-3 ovarian = system: SK-OV-3 ovarian
EKVX NSCLC = system: EKVX NSCLC
HL-60(TB) leukemia = system: HL-60(TB) leukemia
MCF7 breast = system: MCF7 breast

Compound	TGI (SK-MEL-5 melanoma) [µM]	TGI (HCT-15 colon) [µM]	TGI (KM12 colon) [µM]	TGI (SR leukemia) [µM]	TGI (OVCAR-8 ovarian) [µM]	TGI (SNB-78 CNS) [µM]	TGI (A549 NSCLC) [µM]	TGI (CAKI-1 renal) [µM]	TGI (HT29 colon) [µM]	TGI (ACHN renal) [µM]	TGI (SK-MEL-2 melanoma)	TGI (UO-31 renal) [µM]	TGI (M14 melanoma) [µM]	TGI (SK-OV-3 ovarian) [µM]	TGI (EKVX NSCLC) [µM]	TGI (HL-60(TB) leukemia) [µM]	TGI (MCF7 breast) [µM]	GI50 (SK-OV-3 ovarian) [µM]	GI50 (HCT-15 colon) [µM]	GI50 (M14 melanoma) [µM]
CCOC(=O)[C@H]1Nc2c(cccc2[N+](=O)[O-])C2c3ccccc3CC21 (some centres not stated)	> 100	> 100	> 100	> 100	> 100	> 100	> 100	> 100	74.9	> 100	> 100 µM	> 100	> 100							
Clc1cccc(C2SCc3nc4ccccc4n32)c1 (configuration not stated)		44	50.5	56.3	65.1	87.5	> 100	> 100	67.2	99.2			50.5	52.7	52.4	31.6				
Cc1cc(C)c(S(=O)(=O)N(CCCN)OCCCN)c(C)c1	> 100		> 100	> 100	> 100		> 100	> 100	> 100	> 100	> 100 µM	> 100	> 100	> 100	> 100		> 100			
Clc1ccc(-c2nnc(-c3nsc4ccccc34)o2)cc1	> 100	> 100	> 100		> 100	> 100	> 100		> 100	> 100	> 100 µM	47.5	> 100		> 100					
Fc1ccc(C(OCCN2CC3CC2CN3)c2ccc(F)cc2)cc1 (configuration not stated)	30.9	> 100	> 100	73	> 100			> 100		> 100	38.1 µM			> 100		> 100	> 100			
CC(=O)Nc1cc(/C=C\C(=O)N2CC(CCl)c3c2cc(N)c2ccccc32)n(C)n1 (configuration not stated)		> 100						0.0223			0.0416 µM and 0.0479 µM	0.0214				0.0126	> 100	0.0311	0.0167	0.0138
